Data on 11 compounds can be found in patent US8492578B2, “Compounds useful in therapeutic and cosmetic methods” (Photoderma SA, priority 2007, dated 2013).

The test system of series [1] is stratum corneum. Kind of series: PpIX fluorescence on intact skin vs skin with stratum corneum removed (permeability through stratum corneum). In kind it is in vivo, human. The following applies: for Fluoresence epidermis: Cold cream formulation, 3 hours after topical administration; for increase of fluorescence upon removal of the stratum corneum: SC removed vs intact skin. How it is done: Permeability of compounds of the invention through the stratum corneum is assessed by measurements of fluorescence of PpIX. The expression “PpIX”, for the purpose of the present specification, stands for PpIX as reported in the literature and other natural porphyrins producing a fluorescent signal following illumination with suitable light. Permeability of the compounds of the present invention is determined by comparing PpIX-induced fluorescence of compounds of the invention applied on the surface of intact skin with fluorescence induced by the same compounds applied on skin from which the stratum corneum has been removed.
The stratum corneum was removed by dry shaving with a razor blade (BIC Classic 1 lame). The lame is gently swept 8 times over the skin without using water, razor foam or any other lubricant.
Formulations comprising compounds of the invention and controls are administered topically on the forearm or the leg using the Tegaderm™ transparent dressing. This dressing enables the transport of water and oxygen according to the specifications of the manufacturer. This dressing was removed and the remaining formulation cleaned with water just before the measurements.
A fluorescence imaging system illustrated in FIG. IX of WO 03/041673 is used to assess the extent and level of PpIX production in “macroscopic” samples (parts of the human body such as: forearm, leg, back, etc.). The experimental equipment and descriptions, as well as the ALA-DGME compounds disclosed therein are expressly incorporated herein by reference. As the goal is to assess the relative level of PpIX, red light at 635 nm is chosen as PpIX fluorescence excitation wavelength. It is indeed well known that red light penetrates deeper in the cutaneous tissues than green and violet light, the later two wavelengths corresponding to larger PpIX absorption peaks (see the PpIX fluorescence excitation and emission spectra presented on the right side in FIG. IX of WO 03/041673).
As presented in the schematic diagram presented in FIG. IX of WO 03/041673, this fluorescence imaging system involves a modified 300 W D-light source 1 (Xe arc lamp from Storz, Tuttlingen, Germany) equipped with a red bandpass filter (635 nm, 20 nm FWHM; Chroma, USA). This fluorescence excitation light is coupled in a Storz 4 mm diameter light guide 2. The output of this light guide is imaged on the tissue sample 3 with a projection objective 4 (Nikon, Japan; A F Nikkor; 1:1.4 D/50 mm) to generate a homogenous spot of 2.5 cm in diameter with an irradiance of 2 mW/cm^2 at 635 nm. The distance between this projection objective 4 and the sample 3 is 25 cm. Therefore, the light beam illuminating the sample can be considered as parallel. The fluorescence is collected by another objective 5 (Fujinon, Japan; TV zoom lens; 1:1.2/12.5-75 mm; Type H6X12.5R-MD3) through a longpass filter 6 (Schott, Germany; RG665) and the image detected by a scientific CCD camera (752×582 pixels CF 8/1 Kappa, Gleichen, Germany) equipped 7 with an image intensifier (Proxifier BV 256-2FcZ-CH, Proxitronic, Bensheim, Germany). The images are captured by the 8-bits camera frame grabber and saved on the computer 8 with the “Kappa Imagebase-control” software. Image treatment is carried out using the IPLab imaging software. The spatial resolution of the complete setup has been measured with an USAF resolution target and the value we obtained in the sample plan is 3 lp/mm, the size of the image detected by the camera being 3×4 cm^2.
A reference sample is been designed to enable a comparison of the relative fluorescence brightness between samples investigated at different times. This reference consists of a ruby disk (diameter: 12 mm; thickness: 1.02 mm; Type 8Sp3, Hans Stettler S A, Lyss, Switzerland) covered with a neutral density filter (T=2.27%) so that the signal obtained with this reference sample corresponds to the typical tissue fluorescence detected in our conditions. The images are analyzed using the NIH image software. […]

Series [2] has as its system hair follicles. Kind of series: Fluorescence imaging of skin after hair removal (selectivity for hair follicle). In kind it is in vivo, human. The following applies: for distribution of fluorescence on skin: 20 wt. % formulation, applied after epilation. Here is the method: FIGS. 1-10 are fluorescence images of human forearm or leg skin areas of 2.5 cm in diameter, the pictures being taken three hours after administration of different photosensitizer precursors under variable experimental conditions.
FIGS. 1A-B are fluorescence photographs of human skin to which compounds of the invention were applied. A formulation containing phenylalanin-ALA-amide (compound 1) at 80 wt. % was topically applied to the skin and pictures were taken 3 hours following administration. In FIG. 1A, skin was not pre-treated and fluorescence was measured with 20 milliseconds (ms) exposure time. In FIG. 1B, hair was mechanically removed by wax-epilation before administration of the formulation and fluorescence was measured with 10 milliseconds (ms) exposure time.
Formulations comprising compounds of the invention and controls are administered topically on the forearm or the leg using the Tegaderm™ transparent dressing. This dressing enables the transport of water and oxygen according to the specifications of the manufacturer. […]
A fluorescence imaging system illustrated in FIG. IX of WO 03/041673 is used to assess the extent and level of PpIX production in “macroscopic” samples (parts of the human body such as: forearm, leg, back, etc.). […] As the goal is to assess the relative level of PpIX, red light at 635 nm is chosen as PpIX fluorescence excitation wavelength. It is indeed well known that red light penetrates deeper in the cutaneous tissues than green and violet light, the later two wavelengths corresponding to larger PpIX absorption peaks (see the PpIX fluorescence excitation and emission spectra presented on the right side in FIG. IX of WO 03/041673).
As presented in the schematic diagram presented in FIG. IX of WO 03/041673, this fluorescence imaging system involves a modified 300 W D-light source 1 (Xe arc lamp from Storz, Tuttlingen, Germany) equipped with a red bandpass filter (635 nm, 20 nm FWHM; Chroma, USA). This fluorescence excitation light is coupled in a Storz 4 mm diameter light guide 2. […]

The conditions of series [3]: literature reports and Metvix package leaflet; cited from earlier work.
The subject of series [4] is psoriatic plaque.
Experimental: ALA-DGME 5% is prepared in Cold cream as in the previous example. 50 mg of 5% ALA-DGME in Cold cream are applied to the psoriatic plaque. 3 hours later, the zone which received ALA-DGME is exposed to 10-30 J/cm^2 of red light. The treatment is repeated 6 times with a 2 weeks interval.
Series [5] has as its system sebaceous gland. Kind of series: Microscopic fluorescence image of tissue sample. The following applies: formulation comprising 20 wt. %.
For series [6], the system named is skin area affected with seborrheic dermatitis. The series is described as follows: Cosmetic PDT treatment of seborrheic dermatitis. In kind it is in vivo, human. The following applies: 5% in Cold cream.
For series [7], the system named is Pytirosporum ovale. The series is described as follows: Photodestruction of the yeast P. ovale 24 hours after PDT. The series is classed as in vivo, human. The following applies: 5 wt. % in Cold cream; 3 hours, then 5-15 J/cm^2 red light; 24 hours after light exposure. How it is done: 24 hours after the end of the light exposure, scales are collected using a patch-strip method (D-Squame. Cuderm Corp. Dallas. US) and P. ovale can be counted under fluorescence microscope using a fluorochrome which is selective for this type of yeast (Fungiqual A. Kandern. D E).

Series [8] relates to Propionobacterium acnes. The series is described as follows: Photodestruction of P. acnes immediately after PDT. In kind it is in vivo, human. The following applies: face of a volunteer. The text has this:
Immediately after illumination, the bacteria present on the administration zone are collected by immersion in a collection buffer allowing bacteria to detach and survive in suspension. Collection samples are inoculated, after suitable dilution, on agar plates, which are selective for p. acnes. CFU (Colony Forming Units) are counted after 5 days of growth on selective medium.

[9] abbreviates: fluorescence on intact skin relative to skin with SC removed.
Where [10] appears, read: skin treatment: No (intact skin).
Setting [11] is: skin treatment: SC removed by dry shaving.

Entries after “also recorded” stand apart in the source; their conditions may differ. Where two headings read alike, the source gives them in different places.

Regarding ALA-Cholesterylhexyl-ester [Compound 5], the “Penetration through epidermis (%)” value in series [1] (setting [9]) is 7.44%. The Fluoresence epidermis was found to be 7 arbitrary relative units in series [1] (setting [10]) and 94 arbitrary relative units in series [1] (setting [11]).
With ALA-ethyl-ester-ALA [Compound 8], the “increase of fluorescence upon removal of the stratum corneum” value in series [1] is given as 7.5 fold. Moreover, the “Penetration through epidermis (%)” value in series [1] (setting [9]) is recorded as 13.3%; in series [1] (fluorescence on intact skin relative to skin with SC removed, listed as compound 8), 13.3%. For the same compound, the Fluoresence epidermis in series [1] (setting [10]) was 30 arbitrary relative units; in series [1] (setting [11]) it was 225 arbitrary relative units.
For `NCC(=O)CCC(=O)Oc1ccc(CC(N)C(=O)O)cc1` (stereo not shown) [Compound 2, Tyrosine-ALA-ester], the figures for the Fluoresence epidermis in series [1] (setting [10]) and in series [1] (setting [11]) were 0 arbitrary relative units and 114 arbitrary relative units, respectively.
Consider `NCC(=O)CCC(=O)O` [ALA, 5-aminolevulinic acid, reference compound], for which the “distribution of fluorescence on skin” value in series [2] is “fluorescence is non-specific and uniformly distributed over the entire skin area”. Moreover, the “Penetration through epidermis (%)” value in series [1] (human) is reported as 59.6%. In addition, the Fluoresence epidermis was determined as 31 arbitrary relative units in series [1] (setting [10]) and 52 arbitrary relative units in series [1] (setting [11]). In addition, in series [3], the allergenic potential result is “has not demonstrated such an allergenic potential”.
“Phloroglucinol-tri-ALA-ester [Compound 7]”: the “Penetration through epidermis (%)” value in series [1] (setting [9]) was 16%. Also, the Fluoresence epidermis in series [1] (setting [10]) came to 30 arbitrary relative units; in series [1] (setting [11]), 187 arbitrary relative units.
`CCOCCOCCOC(=O)CCC(=O)CN` [ALA-DGME, diethylene-glycol monoethyl ether ester of ALA]: in series [2], the “distribution of fluorescence on skin” value is on record as “fluorescence is discretely associated to specific small spots”. Also, the “Penetration through epidermis (%)” value in series [1] (setting [9]) is reported as 35.1%. The Fluoresence epidermis in series [1] (setting [10]) is reported as 20 arbitrary relative units; in series [1] (setting [11]), 57 arbitrary relative units. Besides, the “psoriasis plaque after several PDT treatments” value in series [4] (5% in Cold cream, 10-30 J/cm^2 red light, repeated 6 times with 2 weeks interval) is reported as “partial clearance”. The “accumulation of photosensitizer in psoriasis lesions (red fluorescence)” value in series [4] (5% in Cold cream, 3 hours) is “accumulated specifically in the psoriasis lesions”. The “side effects to the surrounding skin” value in series [4] (after several PDT treatments, 5% in Cold cream) was “no side effects to the surrounding skin”; in series [6] (24 hours after PDT), “no side effects to the surrounding skin”. The “selectivity of fluorescence for psoriasis plaque” value in series [4] (formulation comprising 20 wt. % (figure legend)) is on record as “red fluorescence covering the psoriasis plaque solely”. In addition, the “fluorescence in tissue sample (microscopic image)” value in series [5] is “fluorescence in sebaceous gland”. In addition, in series [6] (24 hours after PDT, 5-15 J/cm^2 red light), the “skin reaction after PDT” value is given as “slight redness”. In series [6] (topically applied on skin with seborrheic dermatitis, 3 hours), the “selectivity of fluorescence for affected skin” value was “accumulated specifically in the skin area affected with SD; also recorded: only affected skin area shows red fluorescence”. For the same compound, the “reduction in Pytirosporum ovale counts” value in series [7] was “substantial reduction of yeast counts”. In addition, the “adverse reaction on the skin” value in series [8] (5% in Cold cream plus red light) is given as “No adverse reaction was observed”. Moreover, the “reduction in Propionobacerium acnes counts (CFU)” value in series [8] (5% in Cold cream, 3 hours, then 5-15 J/cm^2 red light, immediately after illumination) is reported as “suitable to kill microorganism present on the skin; also recorded: substantial reduction of bacterial counts”.
In the case of `NCC(=O)CCC(=O)O[C@H]1O[C@H](CO)[C@@H](O)[C@H](O)[C@H]1O` [Compound 11, 1′-α-D-Glucose-ALA-ester], the “Penetration through epidermis (%)” value in series [1] (setting [9]) was determined as 0%. In addition, the Fluoresence epidermis in series [1] (setting [10]) amounted to 0 arbitrary relative units; in series [1] (setting [11]) it was 12 arbitrary relative units.
For `CCCCCCOC(=O)CCC(=O)CN` [Hexyl-ALA-ester, reference compound], in series [1], the “Penetration through epidermis (%)” value turned out to be 42%. In addition, the values for the Fluoresence epidermis in series [1] (setting [10]) and in series [1] (setting [11]) were 37 arbitrary relative units and 88 arbitrary relative units, respectively.
For `CC(C)CCCC(C)C1CCC2C3CC=C4CC(OC(=O)CCC(=O)CN)CCC4(C)C3CCC12C` (stereo not shown) [Compound 6, ALA-Cholesteryl-ester], the “increase of fluorescence upon removal of the stratum corneum” value in series [1] amounted to 25 fold. Also, the “Penetration through epidermis (%)” value in series [1] (human) turned out to be 4%. Moreover, the Fluoresence epidermis came to 1 arbitrary relative units in series [1] (setting [10]) and 25 arbitrary relative units in series [1] (setting [11]).
In the case of `NCC(=O)CCC(=O)NC(Cc1ccccc1)C(=O)O` (stereo not shown) [Compound 1, Phenylalanine-ALA-amide], the “fluorescence at positions of hair follicles” value in series [2] (80 wt. % formulation, hair removed by wax-epilation, 3 hours after administration, 10 ms exposure) was “spots of high fluorescence”.
As for `NCC(=O)CCC(=O)OCC(O)C1OC(=O)C(O)=C1O` (stereo not shown) [Compound 12, ALA-ascorbate-ester], the Fluoresence epidermis in series [1] (setting [10]) was 4 arbitrary relative units; in series [1] (setting [11]) it was 20 arbitrary relative units.
